Test results as given in US4539152A, “4-Substituted-2-oxoazetidine compounds” (Fujisawa Pharmaceutical Co., Ltd., priority 1980, dated 1985).

Tests used:
[1] = system: Pseudomonas aeruginosa NCTC-10490; test: antimicrobial activity, minimal inhibitory concentration (agar streak); format: cell-based; settings: NCTC10490, heart infusion agar, 37° C., 20 hours, overnight culture 10^8 viable cells per ml
Description: (§1) One loopful of an overnight culture of each test strain in Trypticase-soy broth (10^8 viable cells per ml.) was streaked on heart infusion agar (HI-agar) containing graded concentrations of antibiotics, and the minimal inhibitory concentration (MIC) was expressed in terms of μg/ml after incubation at 37° C. for 20 hours.

Staphylococcus aureus 6 = test: as above; format: cell-based; settings: heart infusion agar, 37° C., 20 hours, overnight culture 10^8 viable cells per ml
Description: as §1

CC(C)(O)[C@@H]1C(=O)N2C(C(=O)[O-])=C(SCCN)C[C@H]12.[K+] [potassium (5R,6R)-3-(2-aminoethylthio)-6-(1-hydroxy-1-methylethyl)-7-oxo-1-azabicyclo[3.2.0]hept-2-ene-2-carboxylate]
MIC [1]: 12.5 µg/mL
MIC (Staphylococcus aureus 6): 1.56 µg/mL
